Read-outs that look alike come from different tables or passages of the source.
How the values were obtained:
human α7‐only‐nAChR = molecular target: T1, human α7‐only‐nAChR (Homo sapiens, UniProt P36544); assay: cell-based; conditions: SEM; for koff: read-out: k off α7‐only; for kon: read-out: k on α7‐only
T1 construct: expressed in transfected cells; host or cells: Xenopus laevis oocytes, cRNA injection

human α7β2‐nAChR = molecular target: T2, human α7β2‐nAChR (Homo sapiens, UniProt P17787+P36544); assay: cell-based
T2 construct: expressed in transfected cells; host or cells: Xenopus laevis oocytes, cRNA injection
T2 sequence (P36544 23-502 limits assumed): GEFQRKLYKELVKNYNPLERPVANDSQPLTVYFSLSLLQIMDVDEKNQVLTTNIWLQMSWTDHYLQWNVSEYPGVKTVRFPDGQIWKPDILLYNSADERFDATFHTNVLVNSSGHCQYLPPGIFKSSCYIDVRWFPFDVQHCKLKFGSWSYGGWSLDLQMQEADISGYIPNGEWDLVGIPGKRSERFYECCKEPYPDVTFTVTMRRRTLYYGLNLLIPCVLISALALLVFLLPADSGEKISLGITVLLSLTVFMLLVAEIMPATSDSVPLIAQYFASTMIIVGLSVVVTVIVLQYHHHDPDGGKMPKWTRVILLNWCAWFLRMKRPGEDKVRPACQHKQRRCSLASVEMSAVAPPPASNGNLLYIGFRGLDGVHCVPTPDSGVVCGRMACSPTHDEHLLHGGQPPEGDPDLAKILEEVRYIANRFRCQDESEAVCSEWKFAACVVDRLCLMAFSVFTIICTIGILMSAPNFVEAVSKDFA
T2 sequence (P17787 26-502 limits assumed): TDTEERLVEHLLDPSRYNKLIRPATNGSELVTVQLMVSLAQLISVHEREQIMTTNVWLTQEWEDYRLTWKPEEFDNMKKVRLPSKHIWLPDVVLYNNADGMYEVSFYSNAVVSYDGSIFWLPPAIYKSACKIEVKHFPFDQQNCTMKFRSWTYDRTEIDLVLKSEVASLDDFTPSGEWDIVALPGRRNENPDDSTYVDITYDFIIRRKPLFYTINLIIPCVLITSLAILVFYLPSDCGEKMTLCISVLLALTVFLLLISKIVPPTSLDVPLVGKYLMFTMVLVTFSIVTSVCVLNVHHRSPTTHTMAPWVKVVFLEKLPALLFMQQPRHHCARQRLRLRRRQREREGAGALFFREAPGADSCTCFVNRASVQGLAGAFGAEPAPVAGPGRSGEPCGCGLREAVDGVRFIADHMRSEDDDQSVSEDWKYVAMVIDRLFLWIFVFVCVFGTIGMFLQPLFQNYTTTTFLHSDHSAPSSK

α3β4‐nAChR = molecular target: T3, α3β4‐nAChR (Homo sapiens, UniProt P30926+P32297); type: cell-based
T3 construct: expressed in transfected cells; host or cells: Xenopus laevis oocytes, cRNA injection
T3 sequence (P30926 22-498): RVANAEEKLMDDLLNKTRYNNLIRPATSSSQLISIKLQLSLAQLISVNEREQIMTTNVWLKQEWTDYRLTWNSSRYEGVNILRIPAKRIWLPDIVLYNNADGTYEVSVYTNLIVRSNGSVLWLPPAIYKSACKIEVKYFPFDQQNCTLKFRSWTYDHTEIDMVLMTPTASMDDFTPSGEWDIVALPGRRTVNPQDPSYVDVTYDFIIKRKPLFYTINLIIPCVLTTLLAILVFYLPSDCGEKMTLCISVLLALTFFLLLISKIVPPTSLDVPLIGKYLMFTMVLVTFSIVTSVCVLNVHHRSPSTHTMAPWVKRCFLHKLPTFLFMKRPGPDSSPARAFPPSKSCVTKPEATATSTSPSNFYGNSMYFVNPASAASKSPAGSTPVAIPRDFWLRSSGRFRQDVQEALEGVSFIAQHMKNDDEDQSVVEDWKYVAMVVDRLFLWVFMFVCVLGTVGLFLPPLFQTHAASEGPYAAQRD
T3 sequence (P32297 32-505): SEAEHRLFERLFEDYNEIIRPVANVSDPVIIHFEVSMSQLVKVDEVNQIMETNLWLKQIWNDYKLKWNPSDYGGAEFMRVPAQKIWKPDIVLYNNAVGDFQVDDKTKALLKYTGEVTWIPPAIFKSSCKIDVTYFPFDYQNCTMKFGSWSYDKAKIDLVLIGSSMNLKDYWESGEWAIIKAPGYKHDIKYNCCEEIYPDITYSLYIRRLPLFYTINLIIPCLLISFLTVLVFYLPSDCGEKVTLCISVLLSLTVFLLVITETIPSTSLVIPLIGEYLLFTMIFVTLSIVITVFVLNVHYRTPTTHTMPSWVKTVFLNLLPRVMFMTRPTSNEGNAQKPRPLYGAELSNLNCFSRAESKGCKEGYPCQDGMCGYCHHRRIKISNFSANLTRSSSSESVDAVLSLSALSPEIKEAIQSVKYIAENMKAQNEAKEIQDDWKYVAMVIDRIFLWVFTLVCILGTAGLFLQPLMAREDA

α6/3β2β3‐nAChR = molecular target: T4, α6/3β2β3‐nAChR (Homo sapiens, UniProt P17787+P32297+Q05901+Q15825); type: cell-based
T4 construct: expressed in transfected cells; host or cells: Xenopus laevis oocytes, cRNA injection
T4 sequence (P17787 26-502): as the sequence (P17787 26-502 limits assumed) above
T4 sequence (Q15825+P32297 fused with the stated changes): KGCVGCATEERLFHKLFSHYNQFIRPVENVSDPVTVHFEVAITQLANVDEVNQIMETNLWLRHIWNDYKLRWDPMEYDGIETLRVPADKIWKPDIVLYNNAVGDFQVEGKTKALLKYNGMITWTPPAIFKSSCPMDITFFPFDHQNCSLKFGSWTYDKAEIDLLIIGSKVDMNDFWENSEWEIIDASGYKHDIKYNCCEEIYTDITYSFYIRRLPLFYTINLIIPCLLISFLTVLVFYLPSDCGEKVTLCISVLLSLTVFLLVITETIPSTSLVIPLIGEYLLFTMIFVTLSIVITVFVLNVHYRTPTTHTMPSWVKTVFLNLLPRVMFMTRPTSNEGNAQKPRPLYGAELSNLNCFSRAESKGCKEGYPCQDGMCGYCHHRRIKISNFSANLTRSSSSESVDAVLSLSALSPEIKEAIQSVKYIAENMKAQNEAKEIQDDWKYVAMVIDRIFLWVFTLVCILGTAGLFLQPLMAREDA
T4 sequence (Q05901 25-458): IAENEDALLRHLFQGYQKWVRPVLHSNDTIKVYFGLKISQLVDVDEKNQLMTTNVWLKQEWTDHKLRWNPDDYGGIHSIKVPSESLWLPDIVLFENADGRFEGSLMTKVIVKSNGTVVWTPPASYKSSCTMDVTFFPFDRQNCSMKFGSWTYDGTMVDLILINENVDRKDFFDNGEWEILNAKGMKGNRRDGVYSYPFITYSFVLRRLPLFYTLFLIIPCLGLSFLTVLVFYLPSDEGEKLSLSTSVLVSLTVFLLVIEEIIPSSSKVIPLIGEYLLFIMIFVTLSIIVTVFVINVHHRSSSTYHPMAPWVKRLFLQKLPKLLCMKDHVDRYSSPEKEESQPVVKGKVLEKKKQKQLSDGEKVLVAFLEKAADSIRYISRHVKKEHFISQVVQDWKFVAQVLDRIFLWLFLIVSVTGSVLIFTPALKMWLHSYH

α3β2‐nAChR = molecular target: T5, α3β2‐nAChR (Homo sapiens, UniProt P17787+P32297); type: cell-based
T5 construct: expressed in transfected cells; host or cells: Xenopus laevis oocytes, cRNA injection
T5 sequence (P17787 26-502): as the sequence (P17787 26-502 limits assumed) above
T5 sequence (P32297 32-505): as the sequence (P32297 32-505) above

[1] = molecular target: T6, Outer pocket mutant α7β2‐nAChR (β2[K79T,F119Q]) (Homo sapiens, UniProt P17787+P36544, F144Q/K104T); assay: ACh concentration‐response curve, TEVC, outer pocket α7β2‐nAChR; type: cell-based; conditions: mean ± SEM of 15–19 oocytes
T6 construct: expressed in transfected cells; host or cells: Xenopus laevis oocytes, cRNA injection
T6 sequence (P36544 23-502): as the sequence (P36544 23-502 limits assumed) above
T6 sequence (P17787 26-502 K104T/F144Q): as the sequence (P17787 26-502 limits assumed) above, with K79T, F119Q counted along it

[2] = molecular target: T7, Inner pocket mutant α7β2‐nAChR (β2[S108T, V111L,W120Y]) (Homo sapiens, UniProt P17787+P36544, S133T/V136L/W145Y); assay: ACh concentration‐response curve, TEVC, inner pocket α7β2‐nAChR; type: cell-based; conditions: mean ± SEM of 15–19 oocytes
T7 construct: expressed in transfected cells; host or cells: Xenopus laevis oocytes, cRNA injection
T7 sequence (P36544 23-502): as the sequence (P36544 23-502 limits assumed) above
T7 sequence (P17787 26-502 S133T/V136L/W145Y): as the sequence (P17787 26-502 limits assumed) above, with S108T, V111L, W120Y counted along it

[3] = molecular target: T8, Outer pocket mutant α7β2‐nAChR (β2[K79T,F119Q] at both α7(+)/(−)β2 subunit interfaces) (Homo sapiens, UniProt P17787+P36544, F144Q/K104T); assay: cell-based; conditions: SEM; for koff: read-out: k off, “Outer pocket” α7β2‐nAChR; for kon: read-out: k on, “Outer pocket” α7β2‐nAChR
T8 construct: expressed in transfected cells; host or cells: Xenopus laevis oocytes, cRNA injection
T8 sequence (P17787 26-502 K104T/F144Q): as the sequence (P17787 26-502 limits assumed) above, with K79T, F119Q counted along it
T8 sequence (P36544 23-502): as the sequence (P36544 23-502 limits assumed) above

[4] = molecular target: T9, Inner pocket mutant α7β2‐nAChR (β2[S108T, V111L,W120Y] at both α7(+)/(−)β2 subunit interfaces) (Homo sapiens, UniProt P17787+P36544, S133T/V136L/W145Y); assay: cell-based; conditions: SEM; for koff: read-out: k off, “Inner pocket” α7β2‐nAChR; for kon: read-out: k on, “Inner pocket” α7β2‐nAChR
T9 construct: expressed in transfected cells; host or cells: Xenopus laevis oocytes, cRNA injection
T9 sequence (P17787 26-502 S133T/V136L/W145Y): as the sequence (P17787 26-502 limits assumed) above, with S108T, V111L, W120Y counted along it
T9 sequence (P36544 23-502): as the sequence (P36544 23-502 limits assumed) above

α9α10‐nAChR = molecular target: T10, α9α10‐nAChR (Homo sapiens, UniProt Q9GZZ6+Q9UGM1); assay: cell-based
T10 construct: expressed in transfected cells; host or cells: Xenopus laevis oocytes, cRNA injection
T10 sequence (Q9UGM1 26-479 limits assumed): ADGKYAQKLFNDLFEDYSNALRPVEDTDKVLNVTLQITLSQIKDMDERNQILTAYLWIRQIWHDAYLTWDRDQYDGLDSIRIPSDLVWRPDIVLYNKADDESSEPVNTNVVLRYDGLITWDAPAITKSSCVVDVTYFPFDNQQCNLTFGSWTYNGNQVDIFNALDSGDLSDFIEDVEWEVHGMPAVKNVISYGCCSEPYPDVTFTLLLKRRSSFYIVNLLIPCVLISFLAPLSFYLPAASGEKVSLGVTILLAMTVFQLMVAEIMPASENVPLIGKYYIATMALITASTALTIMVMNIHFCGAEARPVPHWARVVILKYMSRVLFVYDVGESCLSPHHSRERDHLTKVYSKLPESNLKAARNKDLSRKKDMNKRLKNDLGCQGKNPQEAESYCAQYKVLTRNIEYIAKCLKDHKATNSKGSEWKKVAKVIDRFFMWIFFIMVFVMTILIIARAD
T10 sequence (Q9GZZ6 25-450): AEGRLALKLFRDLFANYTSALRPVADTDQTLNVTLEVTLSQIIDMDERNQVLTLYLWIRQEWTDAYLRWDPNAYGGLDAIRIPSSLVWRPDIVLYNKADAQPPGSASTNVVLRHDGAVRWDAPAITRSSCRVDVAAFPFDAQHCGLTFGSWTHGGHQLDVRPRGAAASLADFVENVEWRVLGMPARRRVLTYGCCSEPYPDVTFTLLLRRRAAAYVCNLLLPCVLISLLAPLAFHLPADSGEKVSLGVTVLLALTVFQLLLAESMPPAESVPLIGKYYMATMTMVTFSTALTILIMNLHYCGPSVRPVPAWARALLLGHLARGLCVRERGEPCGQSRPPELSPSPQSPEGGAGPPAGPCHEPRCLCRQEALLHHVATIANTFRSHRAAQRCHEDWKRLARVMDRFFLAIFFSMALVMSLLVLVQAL

[5] = ACh 10 μM – 10 mM, half‐log steps, 3 s, 60 s apart
[6] = read-out: k off, Unaltered α7β2‐nAChR, SEM
[7] = read-out: k on, Unaltered α7β2‐nAChR, SEM

T1 sequence (P36544 23-502 limits assumed): as the sequence (P36544 23-502 limits assumed) above

| SMILES | Kd (human α7‐only‐nAChR) [µM] | koff (human α7‐only‐nAChR) [s⁻¹] | kon (human α7‐only‐nAChR) [M⁻¹ s⁻¹] | Kd (human α7β2‐nAChR; K d α7β2, SEM) [µM] | koff (human α7β2‐nAChR; read-out: k off α7β2, SEM) [s⁻¹] | kon (human α7β2‐nAChR; read-out: k on α7β2, SEM) [M⁻¹ s⁻¹] | further results |
| --- | --- | --- | --- | --- | --- | --- | --- |
| CC(C)C[C@@H]1NC(=O)[C@H](CC(C)C)NC(=O)[C@@H]2CSSC[C@H](NC(=O)CN)C(=O)N[C@@H](CSSC[C@@H](C(N)=O)NC(=O)[C@H](Cc3ccc(O)cc3)NC(=O)[C@H](CC(=O)O)NC(=O)[C@@H]3CCCN3C(=O)[C@H](CC(N)=O)NC(=O)[C@H](CC(N)=O)NC1=O)C(=O)N[C@@H](CO)C(=O)N[C@@H](Cc1c[nH]cn1)C(=O)N1CCC[C@H]1C(=O)N1CCC[C@H]1C(=O)N2 [[F9L]] | 0.02 ± 0.003 | 0.000637 | 32800 | 0.015 ± 0.002 | 0.000292 | 20500 | block of ACh‐induced function, α3β4‐nAChR (α3β4‐nAChR): > 90% |
| CC(C)C[C@@H]1NC(=O)[C@H](Cc2ccccc2)NC(=O)[C@@H]2CSSC[C@H](NC(=O)CN)C(=O)N[C@@H](CSSC[C@@H](C(N)=O)NC(=O)[C@H](CC(=O)O)NC(=O)[C@H](CC(=O)O)NC(=O)[C@@H]3CCCN3C(=O)[C@H](CC(N)=O)NC(=O)[C@H](CC(N)=O)NC1=O)C(=O)N[C@@H](CO)C(=O)N[C@@H](Cc1c[nH]cn1)C(=O)N1CCC[C@H]1C(=O)N1CCC[C@H]1C(=O)N2 [[Y15D]] | 0.027 ± 0.003 | 0.00112 | 54800 | 0.0099 ± 0.0021 | 0.000298 | 43300 | block of ACh‐induced function, α6/3β2β3‐nAChR (α6/3β2β3‐nAChR): ≈ 35%; block of ACh‐induced function, α3β2‐nAChR (α3β2‐nAChR): ≈ 50% |
| CC(C)C[C@@H]1NC(=O)[C@H](Cc2ccccc2)NC(=O)[C@@H]2CSSC[C@H](NC(=O)CN)C(=O)N[C@@H](CSSC[C@@H](C(N)=O)NC(=O)[C@H](Cc3ccc(O)cc3)NC(=O)[C@H](CC(=O)O)NC(=O)[C@@H]3CCCN3C(=O)[C@H](Cc3c[nH]cn3)NC(=O)[C@H](CC(N)=O)NC1=O)C(=O)N[C@@H](CO)C(=O)N[C@@H](Cc1c[nH]cn1)C(=O)N1CCC[C@H]1C(=O)N1CCC[C@H]1C(=O)N2 [[N12H]] | 0.081 ± 0.019 | 0.0011 | 18300 | 0.013 ± 0.002 | 0.000308 | 24500 |  |
| CC(C)C[C@@H]1NC(=O)[C@H](Cc2ccccc2)NC(=O)[C@@H]2CSSC[C@H](NC(=O)CN)C(=O)N[C@@H](CSSC[C@@H](C(N)=O)NC(=O)[C@H](Cc3ccc(O)cc3)NC(=O)[C@H](CCC(=O)O)NC(=O)[C@@H]3CCCN3C(=O)[C@H](CC(N)=O)NC(=O)[C@H](CC(N)=O)NC1=O)C(=O)N[C@@H](CO)C(=O)N[C@@H](Cc1c[nH]cn1)C(=O)N1CCC[C@H]1C(=O)N1CCC[C@H]1C(=O)N2 [[D14E]] | 0.002 ± 0.0006 | 0.000111 | 57500 | 0.0014 ± 0.0003 | 6e-05 | 49500 |  |
| CC(=O)OCC[N+](C)(C)C [ACh, acetylcholine] |  |  |  |  |  |  | Imax, maximum function induced by ACh, outer pocket α7β2‐nAChR [1, 5]: 1401 ± 137 nA; hillslope (nH), outer pocket α7β2‐nAChR ([1]; logistic fit per oocyte): 1.17 ± 0.12; Imax, maximum function induced by ACh, inner pocket α7β2‐nAChR [2, 5]: 1539 ± 193 nA; hillslope (nH), inner pocket α7β2‐nAChR ([2]; logistic fit per oocyte): 0.93 ± 0.06 |
| CC(C)C[C@@H]1NC(=O)[C@H](Cc2ccccc2)NC(=O)[C@@H]2CSSC[C@H](NC(=O)CN)C(=O)N[C@@H](CSSC[C@@H](C(N)=O)NC(=O)[C@H](Cc3ccc(O)cc3)NC(=O)[C@H](CC(=O)O)NC(=O)[C@@H]3CCCN3C(=O)[C@H](CC(N)=O)NC(=O)[C@H](CC(N)=O)NC1=O)C(=O)N[C@@H](CCCNC(=N)N)C(=O)N[C@@H](Cc1c[nH]cn1)C(=O)N1CCC[C@H]1C(=O)N1CCC[C@H]1C(=O)N2 [[S4R]] | 0.015 ± 0.006 | 0.000597 | 56700 | 0.00083 ± 5e-05 | 9.33e-05 | 112000 | Kd (human α7β2‐nAChR; K d, Unaltered α7β2‐nAChR, SEM): 0.0019 ± 0.00021 µM; koff (human α7β2‐nAChR; [6]): 0.000124 s⁻¹; kon (human α7β2‐nAChR; [7]): 67500 M⁻¹ s⁻¹; Kd [3]: 0.00674 ± 0.00267 µM; koff [3]: 0.000255 s⁻¹; kon [3]: 64300 M⁻¹ s⁻¹; Kd [4]: 0.00531 ± 0.00104 µM; koff [4]: 0.000232 s⁻¹; kon [4]: 45500 M⁻¹ s⁻¹ |
| NCC(=O)N[C@H]1CSSC[C@@H]2NC(=O)[C@@H]3CCCN3C(=O)[C@@H]3CCCN3C(=O)[C@H](Cc3c[nH]cn3)NC(=O)[C@H](CO)NC(=O)[C@H](CSSC[C@@H](C(N)=O)NC(=O)[C@H](Cc3ccc(O)cc3)NC(=O)[C@H](CC(=O)O)NC(=O)[C@@H]3CCCN3C(=O)[C@H](CC(N)=O)NC(=O)[C@H](CC(N)=O)NC(=O)[C@H](Cc3ccc(O)cc3)NC(=O)[C@H](Cc3ccccc3)NC2=O)NC1=O [[L10Y]] | 0.671 ± 0.136 | 0.0044 | 6670 | 0.012 ± 0.003 | 0.000462 | 50200 | Kd (human α7β2‐nAChR; K d α7β2): 0.001 to 0.002 µM; Kd (human α7β2‐nAChR; K d, Unaltered α7β2‐nAChR, SEM): 0.02 ± 0.004 µM; koff (human α7β2‐nAChR; [6]): 0.000508 s⁻¹; kon (human α7β2‐nAChR; [7]): 30700 M⁻¹ s⁻¹; Kd [3]: 0.028 ± 0.004 µM; koff [3]: 0.00064 s⁻¹; kon [3]: 24000 M⁻¹ s⁻¹; Kd [4]: 0.024 ± 0.003 µM; koff [4]: 0.000537 s⁻¹; kon [4]: 21700 M⁻¹ s⁻¹; IC50 (α9α10‐nAChR): > 0.3 µM |

Source: paper PMC10782225 (The FASEB Journal, 2023)
